In patent US11230556B2 (Merck Sharp & Dohme Corp., priority 2016, dated 2022) one finds EC50 data, which are given here for 28 molecules.

In general, EC50 refers to the midpoint of the concentration-response curve.

In the assay the target is T1, human M4 muscarinic acetylcholine receptor (Homo sapiens, UniProt P08173).
T1 construct: expressed in transfected cells; host or cells: CHO-K1
T1 sequence (P08173 1-479): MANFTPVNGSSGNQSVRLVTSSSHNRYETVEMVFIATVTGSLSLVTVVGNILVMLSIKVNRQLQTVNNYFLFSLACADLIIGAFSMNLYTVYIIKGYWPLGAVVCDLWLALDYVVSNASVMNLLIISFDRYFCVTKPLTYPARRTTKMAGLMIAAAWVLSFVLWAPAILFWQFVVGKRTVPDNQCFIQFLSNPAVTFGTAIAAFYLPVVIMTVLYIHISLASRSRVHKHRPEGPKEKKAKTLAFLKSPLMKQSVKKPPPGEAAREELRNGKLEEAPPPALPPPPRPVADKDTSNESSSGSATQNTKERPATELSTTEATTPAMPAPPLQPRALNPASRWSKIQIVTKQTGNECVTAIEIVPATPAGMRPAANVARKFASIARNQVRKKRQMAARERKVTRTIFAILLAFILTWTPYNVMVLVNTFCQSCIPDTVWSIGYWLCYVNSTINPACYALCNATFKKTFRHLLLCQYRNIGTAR
The experiment in a line: human FLIPR-based M4 PAM assay (CHO-K1 cells with human M4 receptor and Gαqi5, calcium dye fluorescence, acetylcholine at 20% of maximum response). The format is cell-based. The conditions noted are these: inflection point (IP) of 4 parameter logistic dose response curve, human M4 receptor + Gαqi5, FLIPR Tetra. As for the experimental part: In a typical experiment the M4 muscarinic acetylcholine receptor modulating activity of the compounds of the present invention was determined in accordance with the following experimental method. CHO-K1 cells stably transfected with human M4 receptor and chimeric G-protein Gαqi5 (Coward P, et al., Analytical Biochemistry, 270:242-248 (1999)) are thawed from liquid N2 storage, resuspended in growth medium, plated in black, clear bottom 384 well plates, and incubated 16-20 hours at 37° C., 5% CO2. On the day of assay, growth medium is removed, the cells are washed 2 times with wash buffer, and cells are incubated in dye loading buffer at 37° C., 5% CO2 for ˜1 hour. Following dye loading the cell plates are placed in a FLIPR Tetra instrument and while monitoring dye fluorescence (excitation […]), 10 uL of test substance at increasing concentrations is added, and fluorescence values are recorded for 4 min. Next, 10 uL of acetylcholine is added (final concentration calculated so as to achieve 20% of the maximum acetycholine response), and the fluorescence reading is continued for 3.5 min. In some cases, a third addition of acetylcholine (final concentration calculated to achieve 70% of the maximal acetylcholine response) is performed. The resulting dose response curves are fit to a 4 parameter logistic equation and the final result is determined as the inflection point (IP) of the curve
CHO-K1 cells stably transfected with human M4 receptor and chimeric G-protein Gαqi5 are thawed from liquid N2 storage, resuspended in growth medium, plated in black, clear bottom 384 well plates, and incubated 16-20 hours at 37° C., 5% CO2.
On the day of assay, growth medium is removed, the cells are washed 2 times with wash buffer, and cells are incubated in dye loading buffer at 37° C., 5% CO2 for ˜1 h. Following dye loading the cell plates are placed in a FLIPR Tetra instrument and while monitoring dye fluorescence ([…]), 10 uL of test substance at increasing concentrations is added, and fluorescence values are recorded for 4 min. Next, 10 uL of acetylcholine is added (final concentration calculated so as to achieve 20% of the maximum acetycholine response), and the fluorescence reading is continued for 3.5 min. In some cases, a third addition of acetylcholine (final concentration calculated to achieve 70% of the maximal acetylcholine response) is performed.
Consider `COc1ccc(OC2CCN(c3nc4c(cc3C)CN(C(=O)CCO)C4)CC2)cn1` [Example 39, 3-Hydroxy-1-(2-(4-((6-methoxypyridin-3-yl)oxy)piperidin-1-yl)-3-methyl-5,7-dihydro-6H-pyrrolo[3,4-b]pyridin-6-yl)propan-1-one], for which the EC50 was determined as 77 nM.

On to `COc1ccc(OC2CCN(c3nc4c(cc3C)CCC4)CC2)cn1` [Example 72, 2-(4-((6-Methoxypyridin-3-yl)oxy)piperidin-1-yl)-3-methyl-6,7-dihydro-5H-cyclopenta[b]pyridine], for which the EC50 came out at 1510 nM. `Cc1cc2c(nc1N1CCC(Oc3cccc(C#N)c3)CC1)CNS2(=O)=O` [Example 76, 3-((1-(6-methyl-1,1-dioxido-2,3-dihydroisothiazolo[4,5-b]pyridin-5-yl)piperidin-4-yl)oxy)benzonitrile]: the EC50 amounted to 221 nM.

In the case of `COc1ccc(OC2CCN(c3nc4c(cc3C)CN(C(C)=O)C4)CC2)cn1` [Example 40, 1-(2-(4-((6-methoxypyridin-3-yl)oxy)piperidin-1-yl)-3-methyl-5,7-dihydro-6H-pyrrolo[3,4-b]pyridin-6-yl)ethan-1-one], the EC50 worked out at 162 nM. The same measure for `Cc1cn2c(=O)[nH]nc2nc1N1CCC(Oc2ccc3c(c2)COC3)CC1` [Example 2, 7-(4-((1,3-Dihydro-2-benzofuran-5-yl)oxy)piperidin-1-yl)-6-methyl-[1,2,4]triazolo[4,3-a]pyrimidin-3(2H)-one]: 20 nM; for `Cc1cc2c(=O)[nH][nH]c2nc1N1CCC(Oc2ccc3cn[nH]c3c2)CC1` [Example 24, 6-(4-((1H-indazol-6-yl)oxy)piperidin-1-yl)-5-methyl-1,2-dihydro-3H-pyrazolo[3,4-b]pyridin-3-one]: 39 nM. Turning to `Cc1cc2c(=O)[nH]n(C)c2nc1N1CCC(Oc2ccc3cn[nH]c3c2)CC1` [Example 27, 6-(4-((1H-indazol-6-yl)oxy)piperidin-1-yl)-1,5-dimethyl-1,2-dihydro-3H-pyrazolo[3,4-b]pyridin-3-one], the 50% effective concentration (EC50) turned out to be 71 nM. Regarding `COc1ccc(OC2CCN(c3nc4c(cc3C)C(=O)N3CCOCC43)CC2)cn1` (stereo not shown) [Example 82, 2-(4-((6-methoxypyridin-3-yl)oxy)piperidin-1-yl)-3-methyl-7,8,10,10a-tetrahydro-5H-pyrido[2′,3′:3,4]pyrrolo[2,1-c][1,4]oxazin-5-one], the EC50 is 92 nM. As for `COc1ccc(OC2CCN(c3nc4c(cc3C)CN(C(=O)C3COC3)C4)CC2)cn1` [Example 55, (2-(4-((6-methoxypyridin-3-yl)oxy)piperidin-1-yl)-3-methyl-5,7-dihydro-6H-pyrrolo[3,4-b]pyridin-6-yl)(oxetan-3-yl)methanone], the figure is 212 nM; as for `Cc1cc2c(nc1N1CCC(Oc3ccc4c(c3)COC4)CC1)C1CNCCN1C2=O` (single isomer, unassigned) [Example 83A], 103 nM.

Turning to `COc1ccc(OC2CCN(c3nc4c(cc3C)CN(C(=O)C3CC3(F)F)C4)CC2)cn1` (stereo not shown) [Example 57, (2,2-difluorocyclopropyl)(2-(4-((6-methoxypyridin-3-yl)oxy)piperidin-1-yl)-3-methyl-5,7-dihydro-6H-pyrrolo[3,4-b]pyridin-6-yl)methanone], the EC50 amounted to 378 nM.

As to `COc1ccc(OC2CCN(c3nc4c(cc3C)CN(CCO)C4)CC2)cn1` [Example 37, 2-(2-(4-((6-methoxypyridin-3-yl)oxy)piperidin-1-yl)-3-methyl-5,7-dihydro-6H-pyrrolo[3,4-b]pyridin-6-yl)ethan-1-ol], the EC50 was 133 nM. On to `Cc1cc2c(nc1N1CCC(Oc3ccccc3)CC1)CN(C(=O)C1CC1)C2` [Example 47, cyclopropyl(3-methyl-2-(4-phenoxypiperidin-1-yl)-5,7-dihydro-6H-pyrrolo[3,4-b]pyridin-6-yl)methanone], for which the EC50 was 113 nM. With `Cc1cc2c(nc1N1CCC(Oc3ccccc3)CC1)CNC2` [Example 35, 3-methyl-2-(4-phenoxypiperidin-1-yl)-6,7-dihydro-5H-pyrrolo[3,4-b]pyridine], the EC50 came to 76 nM. `Cc1cc2c(nc1N1CCC(Oc3ccccc3)CC1)COC2=O` [Example 31, 3-methyl-2-(4-phenoxypiperidin-1-yl)furo[3,4-b]pyridin-5(7H)-one]: the EC50 amounted to 17 nM. The same measure for `COc1ccc(OC2CCN(c3nc4cnn(C)c4cc3C)CC2)cn1` [Example 66, 5-(4-((6-methoxypyridin-3-yl)oxy)piperidin-1-yl)-1,6-dimethyl-1H-pyrazolo[4,3-b]pyridine]: 1380 nM; for `COCCC(=O)N1Cc2cc(C)c(N3CCC(Oc4ccc(OC)nc4)CC3)nc2C1` [Example 56, 3-methoxy-1-(2-(4-((6-methoxypyridin-3-yl)oxy)piperidin-1-yl)-3-methyl-5,7-dihydro-6H-pyrrolo[3,4-b]pyridin-6-yl)propan-1-one]: 221 nM; for `Cc1cn2c(=O)n(C)nc2nc1N1CCC(Oc2ccccc2)CC1` [Example 19, 2,6-dimethyl-7-(4-phenoxypiperidin-1-yl)-[1,2,4]triazolo[4,3-a]pyrimidin-3(2H)-one]: 54 nM. For the molecule `COc1ccc(OC2CCN(c3nc4c(cc3C)CN(C(=O)C3CCCC3)C4)CC2)cn1` [Example 46, cyclopentyl(2-(4-((6-methoxypyridin-3-yl)oxy)piperidin-1-yl)-3-methyl-5,7-dihydro-6H-pyrrolo[3,4-b]pyridin-6-yl)methanone], the EC50 came out at 306 nM.

As for `COc1ccc(OC2CCN(c3nc4c(cc3C)S(=O)(=O)NC4)CC2)cn1` [Example 75, 5-(4-((6-Methoxypyridin-3-yl)oxy)piperidin-1-yl)-6-methyl-2,3-dihydroisothiazolo[4,5-b]pyridine 1,1-dioxide], the EC50 amounted to 165 nM. Take `COc1ccc(OC2CCN(c3nc4nnc(C(F)(F)F)n4cc3C)CC2)cn1` [Example 80, 7-(4-((6-Methoxypyridin-3-yl)oxy)piperidin-1-yl)-6-methyl-3-(trifluoromethyl)-[1,2,4]triazolo[4,3-a]pyrimidine]: the EC50 stood at 3090 nM. Turning to `Cc1cc2c(nc1N1CCC(Oc3ccc4c(c3)COC4)CC1)C1COCCN1C2=O` (single isomer, unassigned) [Example 81B], the EC50 came out at 163 nM.

Take `COc1ccc(OC2CCN(c3nc4c(cc3C)CN(S(C)(=O)=O)C4)CC2)cn1` [Example 59, 2-(4-((6-methoxypyridin-3-yl)oxy)piperidin-1-yl)-3-methyl-6-(methylsulfonyl)-6,7-dihydro-5H-pyrrolo[3,4-b]pyridine]: the concentration for a half-maximal effect (EC50) was found to be 125 nM.

Regarding `COc1ccc(OC2CCN(c3nc4c(cc3C)C(O)CC4)CC2)cn1` (single isomer, unassigned) [Example 71A], the EC50 is 3080 nM. As to `COc1ccc(OC2CCN(c3nc4c(cc3C)c(=O)[nH]n4C)CC2)cn1` [Example 25, 6-(4-((6-methoxypyridin-3-yl)oxy)piperidin-1-yl)-1,5-dimethyl-1,2-dihydro-3H-pyrazolo[3,4-b]pyridin-3-one], the EC50 is 249 nM.

With `CCOC(=O)N1Cc2cc(C)c(N3CCC(Oc4ccc(OC)nc4)CC3)nc2C1` [Example 43, ethyl 2-(4-((6-methoxypyridin-3-yl)oxy)piperidin-1-yl)-3-methyl-5,7-dihydro-6H-pyrrolo[3,4-b]pyridine-6-carboxylate], the concentration for a half-maximal effect (EC50) worked out at 157 nM. For `COc1ccc(OC2CCN(c3nc4c(cc3C)C(=O)CC4)CC2)cn1` [Example 69, 2-(4-((6-Methoxypyridin-3-yl)oxy)piperidin-1-yl)-3-methyl-6,7-dihydro-5H-cyclopenta[b]pyridin-5-one], the EC50 was 42 nM. Regarding `COc1ccc(OC2CCN(c3nc4[nH]ncc4cc3C)CC2)cn1` [Example 63, 6-(4-((6-Methoxypyridin-3-yl)oxy)piperidin-1-yl)-5-methyl-1H-pyrazolo[3,4-b]pyridine], the EC50 was 368 nM.
